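Cells were grown in 96-well plates and exposed to each compound for 48 hours at five concentrations; endpoints were interpolated linearly between bracketing concentrations, or set to the highest concentration if not reached. TGI is the concentration that stops growth completely.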
Experiments:
Assay in all cases: growth of human tumour cells (NCI), 48 h
UACC-257 melanoma = system: UACC-257 melanoma
OVCAR-5 ovarian = system: OVCAR-5 ovarian
RXF 393 renal = system: RXF 393 renal
BT-549 breast = system: BT-549 breast
M14 melanoma = system: M14 melanoma
HL-60(TB) leukemia = system: HL-60(TB) leukemia
NCI/ADR-RES ovarian = system: NCI/ADR-RES ovarian
UO-31 renal = system: UO-31 renal
NCI-H522 lung = system: NCI-H522 lung
MDA-N = system: MDA-N
SK-OV-3 ovarian = system: SK-OV-3 ovarian
ACHN renal = system: ACHN renal
NCI-H460 lung = system: NCI-H460 lung
HT29 colon = system: HT29 colon
MALME-3M melanoma = system: MALME-3M melanoma
SF-295 CNS = system: SF-295 CNS
K-562 leukemia = system: K-562 leukemia
786-0 renal = system: 786-0 renal
OVCAR-3 ovarian = system: OVCAR-3 ovarian
A498 renal = system: A498 renal
KM12 colon = system: KM12 colon
CAKI-1 renal = system: CAKI-1 renal
HOP-92 NSCLC = system: HOP-92 NSCLC
NCI-H23 lung = system: NCI-H23 lung
MDA-MB-435 = system: MDA-MB-435
TK-10 renal = system: TK-10 renal
OVCAR-8 ovarian = system: OVCAR-8 ovarian
HOP-62 NSCLC = system: HOP-62 NSCLC
MOLT-4 leukemia = system: MOLT-4 leukemia
SK-MEL-5 melanoma = system: SK-MEL-5 melanoma
SK-MEL-28 melanoma = system: SK-MEL-28 melanoma
RPMI-8226 leukemia = system: RPMI-8226 leukemia
SNB-75 CNS = system: SNB-75 CNS
MDA-MB-231 breast = system: MDA-MB-231 breast
LOX IMVI melanoma = system: LOX IMVI melanoma
IGROV1 ovarian = system: IGROV1 ovarian
SW-620 colon = system: SW-620 colon
DU-145 prostate = system: DU-145 prostate
HCT-116 colon = system: HCT-116 colon
NCI-H226 lung = system: NCI-H226 lung
SNB-19 CNS = system: SNB-19 CNS
SF-268 CNS = system: SF-268 CNS
U251 CNS = system: U251 CNS
CCRF-CEM leukemia = system: CCRF-CEM leukemia
HS 578T breast = system: HS 578T breast
A549 NSCLC = system: A549 NSCLC
COLO 205 colon = system: COLO 205 colon
T-47D breast = system: T-47D breast
EKVX NSCLC = system: EKVX NSCLC
SN12C renal = system: SN12C renal
SF-539 CNS = system: SF-539 CNS
HCT-15 colon = system: HCT-15 colon
PC-3 prostate = system: PC-3 prostate
SK-MEL-2 melanoma = system: SK-MEL-2 melanoma
UACC-62 melanoma = system: UACC-62 melanoma
MCF7 breast = system: MCF7 breast
HCC-2998 colon = system: HCC-2998 colon
SR leukemia = system: SR leukemia
OVCAR-4 ovarian = system: OVCAR-4 ovarian

Measured: TGI

COC(=O)CCCc1c(-c2[nH]c3ccccc3c2CCCC(=O)OC)[nH]c2ccccc12
not listed: MCF7 breast | HCC-2998 colon | SR leukemia | OVCAR-4 ovarian
> 100 µM: all other assays above

CN(C(=O)c1ccccc1)C1CCCC(=O)CC1 (stereo unspecified)
not listed: NCI/ADR-RES ovarian | MOLT-4 leukemia | SK-MEL-5 melanoma
> 100 µM: all other assays above

From PubChem BioAssay (NCI)
